Measurements reported in patent US20260034138A1, “NOVEL PYRIMIDINYL AND TRIAZINYL SULFONAMIDE DERIVATIVES” (Hoffmann-La Roche Inc., priority 2022, published 2026).

tested on: not listed separately; test: Microsome Clearance Assay; format: in vitro ADME; conditions: human microsomes 0.5 mg/mL plus NADPH, 37° C., test compound 1 microM final
Method: Microsome Clearance Assay Protocol:
Incubations at a test compound of 1 mM in microsomes (0.5 mg/mL) plus cofactor NADPH are performed in 96 well plates at 37° C. on a TECAN (Tecan Group Ltd, Switzerland) automated liquid handling system. The final concentration of the test compound in the incubation is 1 microM. After a 10 minutes preincubation step of the test compound with the microsomes, the enzymatic reaction is started by the addition of cofactors. At 1, 3, 6, 9, 15, 25, 35 and 45 minutes, aliquots of the incubations are removed and quenched with 1:3 (v/v) acetonitrile containing internal standards. Samples are then cooled and centrifuged before analysis of the supernatant by LC-MS/MS.
Reference compounds were tested against exemplified compounds for their Microsome Clearance to evaluate metabolite stability.

Row | microsomal CLint at 1 microM | SMILES
1 | 10 µL/min/mg | COc1nc(OCC(F)F)ncc1NS(=O)(=O)c1c[nH]c2nc(Cl)ccc12 [Example 4, 6-chloro-N-[2-(2,2-difluoroethoxy)-4-methoxy-pyrimidin-5-yl]-1H-pyrrolo[2,3-b]pyridine-3-sulfonamide]
2 | 10 µL/min/mg | COc1nc(NS(=O)(=O)c2c[nH]c3cc(Cl)ccc23)nnc1CC(F)F [Example 12, 6-chloro-N-[6-(2,2-difluoroethyl)-5-methoxy-1,2,4-triazin-3-yl]-1H-indole-3-sulfonamide]
3 | 41 µL/min/mg | COc1nc(OCC(F)F)c(F)cc1NS(=O)(=O)c1c[nH]c2nc(Cl)ccc12 [RE-A, 6-chloro-N-[6-(2,2-difluoroethoxy)-5-fluoro-2-methoxy-3-pyridyl]-1H-pyrrolo[2,3-b]pyridine-3-sulfonamide, reference compound]

molecular target: human GPR17 short isoform (Homo sapiens, UniProt Q13304); test: GPR17 cAMP assay (hGPR17 cAMP); format: cell-based; conditions: CHO-K1 cells stably expressing human GPR17 short isoform; antagonist mode vs EC80 of MDL29,951; forskolin 15 μM; TR-FRET cAMP
Method: GPR17 cAMP Assay Protocol:
CHO-K1 cells stably expressing vector containing untagged human GPR17 short isoform (Roche) were cultured at 37° C./5% CO2 in DMEM (Dulbecco's Modified Eagle Medium): F-12 (1:1) supplemented with 10% foetal bovine serum and 400 μg/ml Geneticin.
Changes in intracellular cyclic adenosine monophosphate (cAMP) levels were quantified using the Nano-TRF Detection Assay kit (Roche Diagnostics, Cat. No. 05214386001). This assay allows for direct cAMP quantification in a homogeneous solution. cAMP is detected based on time-resolved fluorescence energy transfer (TR-FRET) and competitive binding of ruthenylated cAMP and endogenous cAMP to an anti-cAMP monoclonal antibody labeled with AlexaFluor-700. The Ruthenium complex serves as the FRET donor and transfers energy to AlexaFluor-700. The FRET signal is inversely proportional to the CAMP concentration.
CHO-GPR17S cells were detached with Accutase and resuspended in assay buffer consisting of Hank's Balanced Salt Solution (HBSS), 10 mM HEPES (4-(2-hydroxyethyl) piperazine-1-ethanesulfonic acid solution) and 0.1% bovine serum albumin (pH 7.4). The cells were seeded in black 384-well plates (Corning) at a density of 10'000 cells/20 μl assay buffer until the addition of compounds.
Test antagonist compounds were serially diluted in dimethyl sulfoxide (DMSO) and spotted in 384-well plates. The compounds were then diluted in HBSS buffer supplemented with an EC80 concentration of MDL29,951 (3-(2-Carboxy-4,6-dichloroindol-3-yl) propionic acid) (GPR17 agonist) plus 3-Isobutyl-1-methylxanthine (IBMX) (0.5 mM final concentration) and added to the cells at room temperature. Forskolin (15 μM final concentration) was added 5 minutes after the test compounds and the cells were incubated at room temperature for 30 minutes. The assay was stopped by adding cAMP detection mix (containing detergents for cell lysis) for 90 minutes at room temperature.
Cellular cAMP was measured using a Paradigm reader (Molecular Devices). The raw data was used to calculate the FRET signal based on the assay's P-factor as per cAMP kit instructions. The data was normalized to the maximal activity of a reference antagonist and dose response curves were fitted to the percent activity of the test compounds using a sigmoidal dose response model (Genedata Screener).
Results in the hGPR17 cAMP assay are provided for compounds of formula I in Table 1

Sequence of human GPR17 short isoform (Q13304 29-367): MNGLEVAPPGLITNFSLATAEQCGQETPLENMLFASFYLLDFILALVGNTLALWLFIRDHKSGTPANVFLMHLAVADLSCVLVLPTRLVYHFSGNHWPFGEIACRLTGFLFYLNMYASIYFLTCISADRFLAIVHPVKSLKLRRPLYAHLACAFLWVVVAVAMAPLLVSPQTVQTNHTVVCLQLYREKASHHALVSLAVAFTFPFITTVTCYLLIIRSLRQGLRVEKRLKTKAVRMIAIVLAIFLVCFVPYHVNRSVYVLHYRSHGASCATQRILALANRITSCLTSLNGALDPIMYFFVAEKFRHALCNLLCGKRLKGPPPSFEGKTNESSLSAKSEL

Row | IC50 | SMILES
4 | 772 nM | CCCc1ncc(NS(=O)(=O)c2c[nH]c3cc(Cl)ccc23)c(OC)n1 [Example 1, 6-chloro-N-(4-methoxy-2-propyl-pyrimidin-5-yl)-1H-indole-3-sulfonamide]
5 | 637 nM | CCc1ncc(NS(=O)(=O)c2c[nH]c3cc(Cl)ccc23)c(OC)n1 [Example 2, 6-chloro-N-(2-ethyl-4-methoxy-pyrimidin-5-yl)-1H-indole-3-sulfonamide]
6 | 159 nM | COc1nc(OC(F)F)ncc1NS(=O)(=O)c1c[nH]c2cc(Cl)ccc12 [Example 3, 6-chloro-N-[2-(difluoromethoxy)-4-methoxy-pyrimidin-5-yl]-1H-indole-3-sulfonamide]
7 | 460 nM | COc1nc(OCC(F)F)ncc1NS(=O)(=O)c1c[nH]c2nc(Cl)ccc12 [Example 4, 6-chloro-N-[2-(2,2-difluoroethoxy)-4-methoxy-pyrimidin-5-yl]-1H-pyrrolo[2,3-b]pyridine-3-sulfonamide]
8 | 174 nM | O=S(=O)(Nc1cnc(OCC(F)F)nc1OC(F)F)c1c[nH]c2cc(Cl)ccc12 [Example 5, 6-chloro-N-[2-(2,2-difluoroethoxy)-4-(difluoromethoxy)pyrimidin-5-yl]-1H-indole-3-sulfonamide]
9 | 1190 nM | O=S(=O)(Nc1cnc(Cl)nc1Cl)c1c[nH]c2cc(Cl)ccc12 [Example 6, 6-chloro-N-(2,4-dichloropyrimidin-5-yl)-1H-indole-3-sulfonamide]
10 | 727 nM | COc1nc(OCCF)ncc1NS(=O)(=O)c1c[nH]c2cc(Cl)ccc12 [Example 7, 6-chloro-N-(2-(2-fluoroethoxy)-4-methoxypyrimidin-5-yl)-1H-indole-3-sulfonamide]
11 | 121 nM | COc1nc(OCC(F)F)ncc1NS(=O)(=O)c1c[nH]c2cc(Cl)ccc12 [Example 8, 6-chloro-N-(2-(2,2-difluoroethoxy)-4-methoxypyrimidin-5-yl)-1H-indole-3-sulfonamide]
12 | 53 nM | COc1nc(OCC(F)F)ncc1NS(=O)(=O)c1c[nH]c2cc(Br)ccc12 [Example 9, 6-bromo-N-[2-(2,2-difluoroethoxy)-4-methoxy-pyrimidin-5-yl]-1H-indole-3-sulfonamide]
13 | 167 nM | COc1nc(OCC(F)F)ncc1NS(=O)(=O)c1c[nH]c2nc(Br)ccc12 [Example 10, 6-bromo-N-[2-(2,2-difluoroethoxy)-4-methoxy-pyrimidin-5-yl]-1H-pyrrolo[2,3-b]pyridine-3-sulfonamide]
14 | 347 nM | COc1nc(OCC(F)F)ncc1NS(=O)(=O)c1c[nH]c2cc(C(F)(F)F)ccc12 [Example 11, N-[2-(2,2-difluoroethoxy)-4-methoxy-pyrimidin-5-yl]-6-(trifluoromethyl)-1H-indole-3-sulfonamide]
15 | 908 nM | COc1nc(NS(=O)(=O)c2c[nH]c3cc(Cl)ccc23)nnc1CC(F)F [Example 12, 6-chloro-N-[6-(2,2-difluoroethyl)-5-methoxy-1,2,4-triazin-3-yl]-1H-indole-3-sulfonamide]
16 | 5220 nM | COc1nc(NS(=O)(=O)c2c[nH]c3cc(Cl)ccc23)nnc1C [Example 13, 6-chloro-N-(5-methoxy-6-methyl-1,2,4-triazin-3-yl)-1H-indole-3-sulfonamide]
